Test results reported in ChEMBL document CHEMBL4715821, “Discovery of 4-ethoxy-7H-pyrrolo[2,3-d]pyrimidin-2-amines as potent, selective and orally bioavailable LRRK2 inhibitors” (Bioorg Med Chem Lett, 2018).

How the values were obtained:
[1] = target: Leucine-rich repeat serine/threonine-protein kinase 2 (Homo sapiens, UniProt Q5S007); test: Inhibition of wild-type human partial length LRRK2 (H970 to E2527 residues) expressed in mammalian expression system assessed as residual activity at 1 uM by Kinomescan method relative to control
[2] = target: Cyclin-dependent kinase 2/cyclin E1 (Homo sapiens) (UniProt P24864+P24941); test: Inhibition of wild-type human full length CDK2 (M1 to L298 residues)/Cyclin E expressed in bacterial expression system assessed as residual activity at 1 uM by Kinomescan method relative to control
[3] = target: Serine/threonine-protein kinase DCLK2 (Homo sapiens) (UniProt Q8N568); test: Inhibition of wild-type human partial length DCAMKL2 (K273 to V664 residues) expressed in bacterial expression system assessed as residual activity at 1 uM by Kinomescan method relative to control
[4] = target: Angiopoietin-1 receptor (Homo sapiens) (UniProt Q02763); test: Inhibition of wild-type human partial length TIE2 (N804 to T1112 residues) expressed in bacterial expression system assessed as residual activity at 1 uM by Kinomescan method relative to control
[5] = target: Serine/threonine-protein kinase VRK1 (Homo sapiens) (UniProt Q99986); test: Inhibition of VRK1 (unknown origin) assessed as residual activity at 1 uM by Kinomescan method relative to control
[6] = target: Myosin-IIIb (Homo sapiens) (UniProt Q8WXR4); test: Inhibition of wild-type human partial length MYO3B (M1 to D357 residues) expressed in bacterial expression system assessed as residual activity at 1 uM by Kinomescan method relative to control
[7] = target: Mast/stem cell growth factor receptor Kit (Homo sapiens) (UniProt P10721); test: Inhibition of c-kit (unknown origin) assessed as residual activity at 1 uM relative to control
[8] = target: Serine/threonine-protein kinase WNK2 (Homo sapiens) (UniProt Q9Y3S1); test: Inhibition of wild-type human partial length WNK2 (V47 to D482 residues) expressed in mammalian expression system assessed as residual activity at 1 uM by Kinomescan method relative to control
[9] = target: Calcium/calmodulin-dependent protein kinase type 1B (Homo sapiens) (UniProt Q6P2M8); test: Inhibition of wild-type human partial length CAMK1B (W9 to A311 residues) expressed in mammalian expression system assessed as residual activity at 1 uM by Kinomescan method relative to control
[10] = target: Tyrosine-protein kinase Fes/Fps (Homo sapiens) (UniProt P07332); test: Inhibition of wild-type human partial length FES (I527 to R822 residues) expressed in bacterial expression system assessed as residual activity at 1 uM by Kinomescan method relative to control
[11] = target: Phosphorylase b kinase gamma catalytic chain, liver/testis isoform (Homo sapiens) (UniProt P15735); test: Inhibition of wild-type human partial length PHKG2 (M1 to W300 residues) expressed in bacterial expression system assessed as residual activity at 1 uM by Kinomescan method relative to control
[12] = target: Tyrosine-protein kinase Srms (Homo sapiens) (UniProt Q9H3Y6); test: Inhibition of wild-type human partial length SRMS (L208 to P488 residues) expressed in mammalian expression system assessed as residual activity at 1 uM by Kinomescan method relative to control
[13] = target: Rhodopsin kinase GRK7 (Homo sapiens) (UniProt Q8WTQ7); test: Inhibition of wild-type human full length GRK7 (M1 to L553 residues) expressed in mammalian expression system assessed as residual activity at 1 uM by Kinomescan method relative to control
[14] = target: Serine/threonine-protein kinase Nek4 (Homo sapiens) (UniProt P51957); test: Inhibition of wild-type human full length NEK4 (M1 to F841 residues) expressed in mammalian expression system assessed as residual activity at 1 uM by Kinomescan method relative to control
[15] = target: Casein kinase I isoform gamma-2 (Homo sapiens) (UniProt P78368); test: Inhibition of CK1g2 (unknown origin) assessed as residual activity at 1 uM by Kinomescan method relative to control
[16] = target: Calcium/calmodulin-dependent protein kinase type II subunit alpha (Homo sapiens) (UniProt Q9UQM7); test: Inhibition of wild-type human partial length CAMK2A (M1 to K328 residues) expressed in bacterial expression system assessed as residual activity at 1 uM by Kinomescan method relative to control
[17] = target: Serine/threonine-protein kinase VRK2 (Homo sapiens) (UniProt Q86Y07); test: Inhibition of wild-type human partial length VRK2 (M1 to T336 residues) expressed in mammalian expression system assessed as residual activity at 1 uM by Kinomescan method relative to control
[18] = target: Tyrosine-protein kinase Mer (Homo sapiens) (UniProt Q12866); test: Inhibition of wild-type human partial length c-MER (R557 to L884 residues) expressed in bacterial expression system assessed as residual activity at 1 uM by Kinomescan method relative to control
[19] = target: Tyrosine-protein kinase Fyn (Homo sapiens) (UniProt P06241); test: Inhibition of wild-type human partial length FYN (T243 to L534 residues) expressed in bacterial expression system assessed as residual activity at 1 uM by Kinomescan method relative to control
[20] = target: Serine/threonine-protein kinase LATS1 (Homo sapiens) (UniProt O95835); test: Inhibition of wild-type human partial length LATS1 (Q678 to V1130 residues) expressed in bacterial expression system assessed as residual activity at 1 uM by Kinomescan method relative to control
[21] = target: Testis-specific serine/threonine-protein kinase 2 (Homo sapiens) (UniProt Q96PF2); test: Inhibition of TSSK2 (unknown origin) assessed as residual activity at 1 uM by Kinomescan method relative to control
[22] = target: Tyrosine-protein kinase Yes (Homo sapiens) (UniProt P07947); test: Inhibition of wild-type human partial length YES (T257 to L543 residues) expressed in bacterial expression system assessed as residual activity at 1 uM by Kinomescan method relative to control
[23] = target: Protein kinase C beta type (Homo sapiens) (UniProt P05771); test: Inhibition of PKCbeta1 (unknown origin) assessed as residual activity at 1 uM by Kinomescan method relative to control
[24] = target: Tyrosine-protein kinase receptor TYRO3 (Homo sapiens) (UniProt Q06418); test: Inhibition of wild-type human partial length TYRO3 (S497 to T814 residues) expressed in bacterial expression system assessed as residual activity at 1 uM by Kinomescan method relative to control
[25] = target: Mitogen-activated protein kinase kinase kinase 9 (Homo sapiens) (UniProt P80192); test: Inhibition of wild-type human partial length MLK1 (V88 to W426 residues) expressed in bacterial expression system assessed as residual activity at 1 uM by Kinomescan method relative to control
[26] = target: Tau-tubulin kinase 1 (Homo sapiens) (UniProt Q5TCY1); test: Inhibition of TTBK1 (unknown origin) assessed as residual activity at 1 uM by Kinomescan method relative to control

Sequence of Myosin-IIIb (Homo sapiens) (Q8WXR4 whole entry, the tested form may be a part): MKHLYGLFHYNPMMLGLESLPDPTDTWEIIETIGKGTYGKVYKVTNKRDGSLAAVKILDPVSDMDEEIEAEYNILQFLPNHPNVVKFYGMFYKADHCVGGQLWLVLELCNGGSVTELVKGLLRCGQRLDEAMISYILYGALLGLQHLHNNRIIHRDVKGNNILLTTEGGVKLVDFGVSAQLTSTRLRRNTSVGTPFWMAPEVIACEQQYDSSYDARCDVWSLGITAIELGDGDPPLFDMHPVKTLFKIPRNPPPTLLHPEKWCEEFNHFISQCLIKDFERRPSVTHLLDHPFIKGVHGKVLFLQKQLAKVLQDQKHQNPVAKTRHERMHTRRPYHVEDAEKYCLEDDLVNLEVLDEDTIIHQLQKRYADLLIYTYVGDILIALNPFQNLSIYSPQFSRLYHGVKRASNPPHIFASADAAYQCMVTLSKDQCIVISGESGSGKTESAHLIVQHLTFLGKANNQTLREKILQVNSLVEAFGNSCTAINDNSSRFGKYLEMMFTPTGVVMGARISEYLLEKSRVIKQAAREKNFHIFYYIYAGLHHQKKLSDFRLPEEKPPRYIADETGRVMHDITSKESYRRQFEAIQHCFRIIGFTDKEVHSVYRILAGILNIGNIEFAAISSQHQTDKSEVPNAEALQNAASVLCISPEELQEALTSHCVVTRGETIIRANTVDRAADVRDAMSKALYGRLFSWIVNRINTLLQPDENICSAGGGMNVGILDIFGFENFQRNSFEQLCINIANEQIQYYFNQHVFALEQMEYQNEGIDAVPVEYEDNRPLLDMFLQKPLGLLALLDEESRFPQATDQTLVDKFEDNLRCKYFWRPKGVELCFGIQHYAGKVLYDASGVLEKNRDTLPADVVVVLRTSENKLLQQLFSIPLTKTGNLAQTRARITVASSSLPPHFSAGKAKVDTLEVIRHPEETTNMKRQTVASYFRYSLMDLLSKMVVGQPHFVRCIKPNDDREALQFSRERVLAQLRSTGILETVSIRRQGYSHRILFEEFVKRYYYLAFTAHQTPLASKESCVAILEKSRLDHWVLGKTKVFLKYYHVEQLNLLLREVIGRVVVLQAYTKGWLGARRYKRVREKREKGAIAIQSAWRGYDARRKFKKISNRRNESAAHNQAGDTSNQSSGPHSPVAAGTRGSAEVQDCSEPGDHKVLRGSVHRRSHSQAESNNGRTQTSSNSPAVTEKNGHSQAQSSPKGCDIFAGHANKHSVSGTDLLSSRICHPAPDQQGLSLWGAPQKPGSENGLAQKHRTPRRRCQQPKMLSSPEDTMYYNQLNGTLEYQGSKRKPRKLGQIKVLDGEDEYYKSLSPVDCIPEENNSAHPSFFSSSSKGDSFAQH
Sequence of Angiopoietin-1 receptor (Homo sapiens) (Q02763 whole entry, the tested form may be a part): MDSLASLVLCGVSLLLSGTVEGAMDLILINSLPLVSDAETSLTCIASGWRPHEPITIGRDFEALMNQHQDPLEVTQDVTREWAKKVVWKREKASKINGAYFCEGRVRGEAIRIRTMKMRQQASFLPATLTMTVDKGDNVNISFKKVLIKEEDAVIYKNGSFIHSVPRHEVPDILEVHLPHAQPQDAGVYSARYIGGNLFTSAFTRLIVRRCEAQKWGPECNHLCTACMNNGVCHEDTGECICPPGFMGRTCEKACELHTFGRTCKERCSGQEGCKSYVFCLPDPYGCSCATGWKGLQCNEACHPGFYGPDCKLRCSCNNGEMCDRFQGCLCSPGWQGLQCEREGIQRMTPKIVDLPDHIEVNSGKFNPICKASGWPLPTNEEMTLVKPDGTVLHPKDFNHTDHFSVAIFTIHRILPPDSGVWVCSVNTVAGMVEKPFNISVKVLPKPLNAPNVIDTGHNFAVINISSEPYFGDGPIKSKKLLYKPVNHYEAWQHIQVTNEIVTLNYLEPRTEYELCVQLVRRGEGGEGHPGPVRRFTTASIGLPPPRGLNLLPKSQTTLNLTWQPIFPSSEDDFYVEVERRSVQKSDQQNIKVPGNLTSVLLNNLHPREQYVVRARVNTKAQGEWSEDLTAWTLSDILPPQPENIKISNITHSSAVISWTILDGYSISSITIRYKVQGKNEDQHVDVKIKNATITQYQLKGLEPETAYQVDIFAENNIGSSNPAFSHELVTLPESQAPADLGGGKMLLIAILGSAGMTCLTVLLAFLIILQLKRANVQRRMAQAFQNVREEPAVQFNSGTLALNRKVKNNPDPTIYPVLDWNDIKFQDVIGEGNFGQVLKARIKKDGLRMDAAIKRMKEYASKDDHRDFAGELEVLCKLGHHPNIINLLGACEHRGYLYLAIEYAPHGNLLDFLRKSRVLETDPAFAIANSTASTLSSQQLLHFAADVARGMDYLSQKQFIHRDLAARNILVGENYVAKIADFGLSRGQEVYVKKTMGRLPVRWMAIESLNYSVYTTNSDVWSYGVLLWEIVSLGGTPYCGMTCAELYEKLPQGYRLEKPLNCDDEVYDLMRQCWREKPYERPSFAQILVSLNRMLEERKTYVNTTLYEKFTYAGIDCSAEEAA
Sequence of Calcium/calmodulin-dependent protein kinase type 1B (Homo sapiens) (Q6P2M8 whole entry, the tested form may be a part): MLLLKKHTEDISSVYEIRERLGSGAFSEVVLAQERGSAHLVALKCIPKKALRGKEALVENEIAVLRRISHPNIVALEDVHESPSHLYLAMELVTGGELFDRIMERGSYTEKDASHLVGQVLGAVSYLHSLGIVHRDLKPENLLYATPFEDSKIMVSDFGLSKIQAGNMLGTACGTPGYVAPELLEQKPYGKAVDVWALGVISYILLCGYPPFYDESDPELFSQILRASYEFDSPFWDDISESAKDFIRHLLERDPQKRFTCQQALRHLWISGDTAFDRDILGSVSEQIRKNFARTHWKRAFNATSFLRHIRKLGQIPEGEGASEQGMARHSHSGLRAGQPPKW
Sequence of Tyrosine-protein kinase Yes (Homo sapiens) (P07947 2-543 limits assumed): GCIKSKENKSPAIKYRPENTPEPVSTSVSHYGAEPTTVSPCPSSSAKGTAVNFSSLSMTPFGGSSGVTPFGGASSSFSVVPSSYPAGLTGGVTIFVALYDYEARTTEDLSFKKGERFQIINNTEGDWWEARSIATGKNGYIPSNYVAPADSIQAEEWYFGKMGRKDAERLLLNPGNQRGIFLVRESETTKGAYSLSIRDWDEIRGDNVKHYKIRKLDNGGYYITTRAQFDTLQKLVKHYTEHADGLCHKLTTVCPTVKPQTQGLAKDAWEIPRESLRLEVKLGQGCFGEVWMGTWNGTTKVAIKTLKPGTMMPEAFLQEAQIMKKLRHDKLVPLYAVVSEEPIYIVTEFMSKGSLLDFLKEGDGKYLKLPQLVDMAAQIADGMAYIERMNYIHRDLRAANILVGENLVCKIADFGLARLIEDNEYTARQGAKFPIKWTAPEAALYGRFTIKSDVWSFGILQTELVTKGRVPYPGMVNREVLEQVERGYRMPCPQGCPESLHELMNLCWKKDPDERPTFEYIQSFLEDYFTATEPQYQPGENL
Sequence of Protein kinase C beta type (Homo sapiens) (P05771 2-671 limits assumed): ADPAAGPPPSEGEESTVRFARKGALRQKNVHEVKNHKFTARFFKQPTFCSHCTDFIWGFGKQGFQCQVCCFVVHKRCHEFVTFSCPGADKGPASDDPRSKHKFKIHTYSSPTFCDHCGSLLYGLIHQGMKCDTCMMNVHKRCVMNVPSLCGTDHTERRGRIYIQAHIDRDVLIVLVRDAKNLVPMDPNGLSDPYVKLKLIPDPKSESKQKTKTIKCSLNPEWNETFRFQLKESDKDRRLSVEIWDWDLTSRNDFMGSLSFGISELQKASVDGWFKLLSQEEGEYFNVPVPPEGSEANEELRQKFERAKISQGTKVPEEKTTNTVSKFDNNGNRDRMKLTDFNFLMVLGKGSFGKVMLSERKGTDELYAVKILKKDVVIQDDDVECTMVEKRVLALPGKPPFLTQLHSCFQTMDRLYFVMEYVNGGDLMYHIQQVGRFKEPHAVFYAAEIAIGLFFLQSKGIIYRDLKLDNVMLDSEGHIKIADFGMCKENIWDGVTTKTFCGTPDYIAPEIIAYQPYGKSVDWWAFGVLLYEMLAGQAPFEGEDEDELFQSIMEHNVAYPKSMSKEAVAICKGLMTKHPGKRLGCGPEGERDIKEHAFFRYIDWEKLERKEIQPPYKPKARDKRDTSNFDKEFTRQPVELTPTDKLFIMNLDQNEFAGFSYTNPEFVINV
Sequence of Casein kinase I isoform gamma-2 (Homo sapiens) (P78368 whole entry, looked up, the tested form may be a part, canonical isoform): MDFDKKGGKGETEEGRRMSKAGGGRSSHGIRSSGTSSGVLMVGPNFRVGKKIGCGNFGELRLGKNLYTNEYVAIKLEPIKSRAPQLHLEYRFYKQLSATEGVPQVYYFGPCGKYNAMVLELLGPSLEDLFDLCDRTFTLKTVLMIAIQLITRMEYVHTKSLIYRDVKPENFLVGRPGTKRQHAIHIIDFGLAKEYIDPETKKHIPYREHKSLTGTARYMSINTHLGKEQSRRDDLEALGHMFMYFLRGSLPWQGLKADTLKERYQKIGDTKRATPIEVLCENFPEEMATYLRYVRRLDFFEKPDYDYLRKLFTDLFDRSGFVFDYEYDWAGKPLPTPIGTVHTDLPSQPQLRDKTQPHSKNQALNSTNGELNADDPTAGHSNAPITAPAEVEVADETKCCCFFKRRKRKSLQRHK
Sequence of Calcium/calmodulin-dependent protein kinase type II subunit alpha (Homo sapiens) (Q9UQM7 whole entry, the tested form may be a part): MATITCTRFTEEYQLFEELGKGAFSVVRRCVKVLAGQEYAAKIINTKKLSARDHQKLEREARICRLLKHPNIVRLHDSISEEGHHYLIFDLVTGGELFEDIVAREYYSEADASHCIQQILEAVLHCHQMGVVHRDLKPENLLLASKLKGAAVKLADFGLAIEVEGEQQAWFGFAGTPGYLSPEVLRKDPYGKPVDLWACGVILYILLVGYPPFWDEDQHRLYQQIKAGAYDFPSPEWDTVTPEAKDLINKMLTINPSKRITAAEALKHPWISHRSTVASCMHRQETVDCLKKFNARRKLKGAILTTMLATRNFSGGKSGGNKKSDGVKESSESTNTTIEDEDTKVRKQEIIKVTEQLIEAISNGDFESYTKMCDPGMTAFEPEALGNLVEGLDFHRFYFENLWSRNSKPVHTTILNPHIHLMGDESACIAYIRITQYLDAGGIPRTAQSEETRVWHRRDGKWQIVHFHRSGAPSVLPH

In the case of CCOc1nc(Nc2ccc(C(=O)N3CCOCC3)cc2OC)nc2[nH]ccc12, the Activity [1] is reported as 0.91%, the Activity [2] is reported as 92.1% and the Activity [3] is reported as 93.8%. For the same compound, the Activity [4] was 108%, the Activity [5] was 86.7% and the Activity [6] was 48.9%. The Activity [7] was 98.6%, the Activity [8] was 90.4% and the Activity [9] was 117%. The Activity [10] was 43.2%, the Activity [11] was 90.6% and the Activity [12] was 108%. It also gave an Activity [13] of 98.4%, an Activity [14] of 95% and an Activity [15] of 95.6%. It also gave an Activity [16] of 214%, an Activity [17] of 102% and an Activity [18] of 97%. It also gave an Activity [19] of 109%, an Activity [20] of 101% and an Activity [21] of 20.9%. It also gave an Activity [22] of 94.4%, an Activity [23] of 100% and an Activity [24] of 109%. It also gave an Activity [25] of 83.9% and an Activity [26] of 103%.
